# Results published in PubChem BioAssay (NCI).
#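 Five concentrations, 48 hours, 96-well plates. GI50 marks 50% less growth. TGI marks complete inhibition of growth.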
# What was measured:
# Assay in all cases: growth of human tumour cells (NCI), 48 h
# KM12 colon = test system: KM12 colon
# OVCAR-4 ovarian = test system: OVCAR-4 ovarian
# SW-620 colon = test system: SW-620 colon
# SF-268 CNS = test system: SF-268 CNS
# UACC-62 melanoma = test system: UACC-62 melanoma
# OVCAR-3 ovarian = test system: OVCAR-3 ovarian
# SR leukemia = test system: SR leukemia
# SF-539 CNS = test system: SF-539 CNS
# HCC-2998 colon = test system: HCC-2998 colon
# M14 melanoma = test system: M14 melanoma
# MDA-MB-435 = test system: MDA-MB-435
# NCI-H460 lung = test system: NCI-H460 lung
# LOX IMVI melanoma = test system: LOX IMVI melanoma
# NCI/ADR-RES ovarian = test system: NCI/ADR-RES ovarian
# NCI-H226 lung = test system: NCI-H226 lung
# NCI-H522 lung = test system: NCI-H522 lung
# UACC-257 melanoma = test system: UACC-257 melanoma
# A498 renal = test system: A498 renal
# SF-295 CNS = test system: SF-295 CNS
# MDA-MB-231 breast = test system: MDA-MB-231 breast
# OVCAR-5 ovarian = test system: OVCAR-5 ovarian
# MCF7 breast = test system: MCF7 breast
# HS 578T breast = test system: HS 578T breast
# SNB-19 CNS = test system: SNB-19 CNS
# K-562 leukemia = test system: K-562 leukemia
# OVCAR-8 ovarian = test system: OVCAR-8 ovarian
# HT29 colon = test system: HT29 colon
# HL-60(TB) leukemia = test system: HL-60(TB) leukemia
# HCT-116 colon = test system: HCT-116 colon
smiles,measurement,setting,value
CCN(CCCNC(=O)Cc1cc(=O)oc2cc(N(C)C)ccc12)CCNc1ccnc2cc(Cl)ccc12,GI50,KM12 colon,12.5 µM
same,TGI,KM12 colon,28.1 µM
same,GI50,OVCAR-4 ovarian,15 µM
same,TGI,OVCAR-4 ovarian,41.4 µM
same,GI50,SW-620 colon,5.84 µM
same,TGI,SW-620 colon,19.4 µM
same,GI50,SF-268 CNS,11.3 µM
same,TGI,SF-268 CNS,30.5 µM
same,GI50,UACC-62 melanoma,3.36 µM
same,TGI,UACC-62 melanoma,11.9 µM
same,GI50,OVCAR-3 ovarian,14 µM
same,TGI,OVCAR-3 ovarian,33.2 µM
same,GI50,SR leukemia,2.6 µM
same,TGI,SR leukemia,6.64 µM
same,GI50,SF-539 CNS,1.69 µM
same,TGI,SF-539 CNS,3.42 µM
same,GI50,HCC-2998 colon,7.87 µM
same,TGI,HCC-2998 colon,21.3 µM
same,GI50,M14 melanoma,2.08 µM
same,TGI,M14 melanoma,3.85 µM
same,GI50,MDA-MB-435,2.29 µM
same,TGI,MDA-MB-435,5.78 µM
same,GI50,NCI-H460 lung,9.54 µM
same,TGI,NCI-H460 lung,22.3 µM
same,GI50,LOX IMVI melanoma,2 µM
same,TGI,LOX IMVI melanoma,5.01 µM
same,GI50,NCI/ADR-RES ovarian,30.7 µM
same,TGI,NCI/ADR-RES ovarian,> 100 µM
same,GI50,NCI-H226 lung,10.9 µM
same,TGI,NCI-H226 lung,34.4 µM
same,GI50,NCI-H522 lung,4.4 µM
same,TGI,NCI-H522 lung,16.2 µM
same,GI50,UACC-257 melanoma,1.79 µM
same,TGI,UACC-257 melanoma,3.65 µM
same,GI50,A498 renal,12.4 µM
same,TGI,A498 renal,> 100 µM
same,GI50,SF-295 CNS,12.4 µM
same,TGI,SF-295 CNS,27.6 µM
same,GI50,MDA-MB-231 breast,3.47 µM
same,TGI,MDA-MB-231 breast,16.9 µM
same,GI50,OVCAR-5 ovarian,16.5 µM
same,TGI,OVCAR-5 ovarian,38.2 µM
same,GI50,MCF7 breast,7.42 µM
same,TGI,MCF7 breast,22.7 µM
same,GI50,HS 578T breast,13.3 µM
same,TGI,HS 578T breast,32.1 µM
same,GI50,SNB-19 CNS,18.9 µM
same,TGI,SNB-19 CNS,52.7 µM
same,GI50,K-562 leukemia,2.78 µM
same,TGI,K-562 leukemia,7.56 µM
same,GI50,OVCAR-8 ovarian,8.29 µM
same,TGI,OVCAR-8 ovarian,61.7 µM
same,GI50,HT29 colon,3.39 µM
same,TGI,HT29 colon,12.1 µM
same,GI50,HL-60(TB) leukemia,16.3 µM
same,TGI,HL-60(TB) leukemia,44.2 µM
same,GI50,HCT-116 colon,4.86 µM
